Literature values, collected in patent US9889132B2, “Pharmaceutical compositions for the treatment of psoriasis” (Special Product's Line S.p.A., priority 2014, dated 2018).

In the case of `COc1cc(Nc2nc(C)cc(C)n2)cc(OC)c1OC` [4,6-dimethyl-N-(3,4,5-trimethoxyphenyl)pyrimidin-2-amine], the LD50 i.p. (mouse; i.p.) is listed as 780 mg/kg, the LD50 per os (mouse; per os) is listed as 4110 mg/kg and the antimitotic action (mammal cells) is listed as “considerable antimitotic action”.
